{"source": "paper PMC11787452", "about": "“Substrate and inhibitor specificity of Plasmodium nucleoside transporters ENT1 orthologs” (The Journal of Biological Chemistry, 2024)", "key": {"PvENT1": {"target": "T1, PvENT1 (Plasmodium vivax, UniProt A5K8B0)", "T1 construct": "10xHis (N); made in house; host or cells: Sf9 insect cells (baculovirus)", "T1 sequence (A5K8B0 1-416)": "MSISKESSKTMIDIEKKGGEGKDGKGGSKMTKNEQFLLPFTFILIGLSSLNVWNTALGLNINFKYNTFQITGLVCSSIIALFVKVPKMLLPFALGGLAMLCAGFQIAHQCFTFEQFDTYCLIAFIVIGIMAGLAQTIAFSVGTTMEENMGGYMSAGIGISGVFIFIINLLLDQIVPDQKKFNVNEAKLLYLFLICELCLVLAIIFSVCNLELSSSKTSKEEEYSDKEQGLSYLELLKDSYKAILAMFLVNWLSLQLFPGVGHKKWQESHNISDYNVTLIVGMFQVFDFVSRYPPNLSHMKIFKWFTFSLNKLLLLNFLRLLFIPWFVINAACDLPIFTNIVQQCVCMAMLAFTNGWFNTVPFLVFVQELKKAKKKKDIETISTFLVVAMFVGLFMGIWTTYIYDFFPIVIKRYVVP", "test": "ITC binding to PvENT1", "experimental": "(§1) All the constructs were subcloned and inserted into a modified pFastBac with an N-terminal 10 × His tag. The baculovirus was generated in DH10Bac for recombinant protein expression. After 72 h of infection, Sf9 insect cells were harvested. For structural determination of the PfENT1 protein, Sf9 cells were solubilized in buffer containing 25 mM MES (pH 6.0), 150 mM NaCl, 2% (w/v) n-dodecyl-β-D-maltopyranoside (DDM), and protease inhibitor cocktail (0.8 μM aprotinin, 2 μM pepstatin, and 5 μg/ml leupeptin) at 4 °C for 2 h. After centrifugation at 18,000 rpm for 45 min at 4 °C, the detergent-soluble supernatant was collected via centrifugation at 4 °C for 60 min and incubated with Ni-NTA resin (QIAGEN) at 4 °C for 20 min. The resin was further washed with 25 mM MES pH 6.0, 150 mM NaCl, 10 mM imidazole, and 0.05% (w/v) DDM and eluted with buffer containing 25 mM MES pH 6.0, 150 mM NaCl, 300 mM imidazole, and 0.05% (w/v) DDM. The protein was further purified via size-exclusion chromatography (Superdex 200 Increase 10/300; GE Healthcare) in buffer containing 25 mM MES (pH 6.0), 150 mM NaCl, and 0.05% (w/v) DDM. The peak fractions were pooled and concentrated to 10∼50 μM for the nucleoside-binding assay. The protein purification of the bacterial nucleoside transporter NupG was performed as described in previous studies ([35]).\n(§2) […] binding to ENTs was measured at 25 °C via a MicroCal PEAQ-ITC. The purified ENT protein was concentrated to 25 to 50 μM for ITC experiments. The nucleoside was diluted to 5 mM via the same buffer employed for protein purification, which consisted of 25 mM MES (pH 6.0), 150 mM NaCl, and 0.05% DDM. The inhibitor was diluted to 250 μM via the same buffer employed for protein purification, which consisted of 25 mM MES (pH 6.0), 150 mM NaCl, and 0.05% DDM. All the titrations were repeated three times."}, "PfENT1M389L": {"target": "T2, PfENT1M389L (Plasmodium falciparum, UniProt Q8IDM6, M389L)", "T2 construct": "10xHis (N); made in house; host or cells: Sf9 insect cells (baculovirus)", "T2 sequence (Q8IDM6 whole entry M389L)": "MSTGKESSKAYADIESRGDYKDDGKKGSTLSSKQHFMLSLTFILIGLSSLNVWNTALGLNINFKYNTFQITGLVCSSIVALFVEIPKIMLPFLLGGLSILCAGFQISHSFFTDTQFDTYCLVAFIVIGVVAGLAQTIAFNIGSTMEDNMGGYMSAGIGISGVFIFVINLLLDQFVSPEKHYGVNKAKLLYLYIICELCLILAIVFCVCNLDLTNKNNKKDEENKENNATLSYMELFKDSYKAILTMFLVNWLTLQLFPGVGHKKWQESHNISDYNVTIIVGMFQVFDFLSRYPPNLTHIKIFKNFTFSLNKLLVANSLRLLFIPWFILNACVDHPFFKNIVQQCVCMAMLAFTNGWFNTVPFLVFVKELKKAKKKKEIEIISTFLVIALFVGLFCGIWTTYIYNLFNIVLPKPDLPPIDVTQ", "test": "ITC binding to PfENT1M389L", "experimental": "as §1, §2"}, "HepG2 cells": {"test_system": "HepG2 cells", "test": "Cytotoxicity assay (Cell Counting Kit-8) on HepG2 cells", "type": "cell-based", "details": "1.5 to 400 μM, 48 h, compared with GSK4, GSK4-1, GSK4-2", "experimental": "(§3) HepG2 and 293T cells were obtained from ATCC and cultured in Dulbecco’s modified Eagle’s medium supplemented with 10% fetal bovine serum and 1% penicillin-streptomycin (Gibco). Cells were maintained at 37 °C in a humidified atmosphere containing 5% CO2. Cells were seeded at a density of 5 × 10^3 cells per well in 96-well plates and allowed to adhere for 24 h before treatment. Cells were treated with the test compounds at concentrations ranging from 1.5 to 400 μM for 48 h. Control wells were treated with an equivalent concentration of DMSO (vehicle control). Cell viability was assessed using the Cell Counting Kit-8. After 48 h of treatment, 10 μl of Cell Counting Kit-8 solution was added to each well, and the plates were incubated for 2 h at 37 °C. The absorbance was measured at 450 nm using a microplate reader. Cell viability was expressed as a percentage of the control group, and IC50 values were calculated using nonlinear regression analysis (GraphPad Prism 8.0). Data are presented as mean ± SD from three independent experiments, each performed in triplicate."}, "293T cells": {"test_system": "293T cells", "test": "Cytotoxicity assay (Cell Counting Kit-8) on 293T cells", "type": "cell-based", "details": "1.5 to 400 μM, 48 h, compared with GSK4, GSK4-1, GSK4-2", "experimental": "as §3"}, "[1]": {"target": "T3, bacterial nucleoside transporter NupG (Escherichia coli, UniProt P0AFF4)", "T3 construct": "made in house", "T3 sequence (P0AFF4 1-418)": "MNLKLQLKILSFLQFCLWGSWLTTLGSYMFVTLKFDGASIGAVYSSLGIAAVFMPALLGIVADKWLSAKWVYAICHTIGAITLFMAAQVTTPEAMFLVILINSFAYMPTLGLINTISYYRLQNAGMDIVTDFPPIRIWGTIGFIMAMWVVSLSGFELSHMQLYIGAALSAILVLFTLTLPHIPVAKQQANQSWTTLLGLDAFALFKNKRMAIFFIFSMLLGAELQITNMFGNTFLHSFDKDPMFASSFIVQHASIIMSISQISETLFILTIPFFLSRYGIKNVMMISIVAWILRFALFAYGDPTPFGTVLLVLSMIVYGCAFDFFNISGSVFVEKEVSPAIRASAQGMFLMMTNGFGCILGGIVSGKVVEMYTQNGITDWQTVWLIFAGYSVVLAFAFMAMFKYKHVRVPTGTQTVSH", "test": "ITC binding to NupG", "experimental": "as §1, with “The protein purification of the bacterial nucleoside transporter NupG was performed as described in previous studies ([35]).” left out\n[…] binding to ENTs was measured at 25 °C via a MicroCal PEAQ-ITC. […]"}, "PfENT1": {"target": "T4, PfENT1 (Plasmodium falciparum, UniProt Q8IDM6)", "T4 construct": "10xHis (N); made in house; host or cells: Sf9 insect cells (baculovirus)", "T4 sequence (Q8IDM6 whole entry)": "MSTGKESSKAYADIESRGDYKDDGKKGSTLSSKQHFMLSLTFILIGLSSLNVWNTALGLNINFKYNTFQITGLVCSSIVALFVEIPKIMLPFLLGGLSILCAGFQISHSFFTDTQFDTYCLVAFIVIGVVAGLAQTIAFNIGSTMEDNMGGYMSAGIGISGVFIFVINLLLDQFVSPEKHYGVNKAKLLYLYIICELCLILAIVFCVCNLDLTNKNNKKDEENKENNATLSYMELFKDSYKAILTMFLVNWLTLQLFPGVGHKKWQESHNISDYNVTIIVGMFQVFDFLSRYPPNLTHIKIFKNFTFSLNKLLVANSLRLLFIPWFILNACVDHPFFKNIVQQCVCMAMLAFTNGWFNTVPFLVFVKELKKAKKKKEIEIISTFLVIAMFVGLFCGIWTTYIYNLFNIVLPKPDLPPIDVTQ", "test": "ITC binding to PfENT1", "details": "25 °C, 25 mM MES pH 6.0, 150 mM NaCl, 0.05% DDM, read-out: Kd (binding affinity for PfENT1)", "experimental": "as §1, §2"}, "PbENT1": {"target": "T5, PbENT1 (Plasmodium berghei, UniProt A0A509AYF4)", "T5 construct": "10xHis (N); made in house; host or cells: Sf9 insect cells (baculovirus)", "T5 sequence (A0A509AYF4 1-412)": "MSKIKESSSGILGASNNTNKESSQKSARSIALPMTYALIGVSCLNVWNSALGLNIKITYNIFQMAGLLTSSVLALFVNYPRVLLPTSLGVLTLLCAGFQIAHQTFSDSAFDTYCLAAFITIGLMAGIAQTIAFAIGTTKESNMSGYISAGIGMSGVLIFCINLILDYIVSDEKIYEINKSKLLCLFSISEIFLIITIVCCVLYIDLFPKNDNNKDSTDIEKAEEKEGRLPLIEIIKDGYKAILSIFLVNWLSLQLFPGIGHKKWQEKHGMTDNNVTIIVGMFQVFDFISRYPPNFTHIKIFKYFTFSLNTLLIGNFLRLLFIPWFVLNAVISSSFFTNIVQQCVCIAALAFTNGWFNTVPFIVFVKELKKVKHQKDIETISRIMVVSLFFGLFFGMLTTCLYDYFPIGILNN", "test": "ITC binding to PbENT1", "experimental": "as §1, §2"}}, "note": "Several values for one entry are separate records, joined by “and”; a condition that tells them apart may be missing. Equal entries are not always repeated.", "data": [{"smiles": "O=C(NCCN1CCCCCC1=O)c1nc(-c2ccccc2)oc1C1CC1", "note": "[GSK4-3]", "values": [{"measurement": "binding affinity for PvENT1 (in words)", "setting": "PvENT1", "value": "comparable binding"}, {"measurement": "Kd", "setting": "PvENT1; 25 °C, 25 mM MES pH 6.0, 150 mM NaCl, 0.05% DDM, read-out: Kd (binding affinity for PvENT1)", "value": "57.2 nM and 37.6 nM and 30.8 nM"}, {"measurement": "increase in binding affinity for PfENT1M389L compared with parent compound GSK4", "setting": "PfENT1M389L", "value": 6, "unit": "fold"}, {"measurement": "Kd", "setting": "PfENT1M389L; Kd (binding to PfENT1M389L), 25 °C, pH 6.0", "value": 44.4, "unit": "nM"}, {"measurement": "cytotoxicity (in words)", "setting": "HepG2 cells", "value": "lower cytotoxicity"}, {"measurement": "cytotoxicity (in words)", "setting": "293T cells", "value": "lower cytotoxicity"}, {"measurement": "binding to NupG (in words)", "setting": "[1]", "value": "cannot bind"}, {"measurement": "Kd", "setting": "PfENT1", "value": "21.9 nM and 13.4 nM and 16.4 nM"}, {"measurement": "binding affinity for PbENT1 (in words)", "setting": "PbENT1", "value": "negligible binding"}]}]}
